Reference: ChEMBL document CHEMBL1201862, “PubChem BioAssay data set” (2004)
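Exposure lasted 48 hours, with cells grown in 96-well plates and compounds tested at five concentrations. GI50 = concentration required for 50% inhibition of growth.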 The source made the active and inactive calls. Cut-off read from the data, not from the text of the source: active = GI50 up to about 1.1 µM and inactive = higher.

Columns and labels:
Assay in all cases: NCI-60 cell line screen, 48 h
786-0 = tested on: 786-0
A498 = tested on: A498
A549 = tested on: A549
CAKI-1 = tested on: CAKI-1
CCRF-CEM = tested on: CCRF-CEM
COLO 205 = tested on: COLO 205
DLD-1 = tested on: DLD-1
DMS-114 = tested on: DMS-114
DMS-273 = tested on: DMS-273
EKVX = tested on: EKVX
HCC 2998 = tested on: HCC 2998
HCT-116 = tested on: HCT-116
HCT-15 = tested on: HCT-15
HL-60 = tested on: HL-60
HOP-18 = tested on: HOP-18
HOP-62 = tested on: HOP-62
HOP-92 = tested on: HOP-92
HT-29 = tested on: HT-29
IGROV-1 = tested on: IGROV-1
K562 = tested on: K562
KM-20L2 = tested on: KM-20L2
KM12 = tested on: KM12
LOX IMVI = tested on: LOX IMVI
LXFL 529 = tested on: LXFL 529
M14 = tested on: M14
M19-MEL = tested on: M19-MEL
MOLT-4 = tested on: MOLT-4
Malme-3M = tested on: Malme-3M
NCI-H226 = tested on: NCI-H226
NCI-H23 = tested on: NCI-H23
NCI-H460 = tested on: NCI-H460
NCI-H522 = tested on: NCI-H522
OVCAR-3 = tested on: OVCAR-3
OVCAR-4 = tested on: OVCAR-4
OVCAR-5 = tested on: OVCAR-5
OVCAR-8 = tested on: OVCAR-8
RPMI-8226 = tested on: RPMI-8226
RXF 393 = tested on: RXF 393
SF-268 = tested on: SF-268
SF-295 = tested on: SF-295
SF-539 = tested on: SF-539
SK-MEL-5 = tested on: SK-MEL-5
SK-OV-3 = tested on: SK-OV-3
SN12C = tested on: SN12C
SNB-19 = tested on: SNB-19
SNB-75 = tested on: SNB-75
SNB-78 = tested on: SNB-78
SR = tested on: SR
SW-620 = tested on: SW-620
TK-10 = tested on: TK-10
U-251 = tested on: U-251
UACC-257 = tested on: UACC-257
UACC-62 = tested on: UACC-62
UO-31 = tested on: UO-31
XF498 = tested on: XF498
ACHN = tested on: ACHN
SK-MEL-28 = tested on: SK-MEL-28
SK-MEL-2 = tested on: SK-MEL-2

## CCCCCCCC(=O)NCC(O)CNC(=O)CCCCCCC
786-0
  GI50: > 100 µM (inactive)
A498
  GI50: > 100 µM (inactive)
A549
  GI50: > 100 µM (inactive)
CAKI-1
  GI50: > 100 µM (inactive)
CCRF-CEM
  GI50: 88.1 µM (inactive)
COLO 205
  GI50: > 100 µM (inactive)
DLD-1
  GI50: > 100 µM (inactive)
DMS-114
  GI50: > 100 µM (inactive)
DMS-273
  GI50: > 100 µM (inactive)
EKVX
  GI50: > 100 µM (inactive)
HCC 2998
  GI50: > 100 µM (inactive)
HCT-116
  GI50: > 100 µM (inactive)
HCT-15
  GI50: > 100 µM
HL-60
  GI50: > 100 µM (inactive)
HOP-18
  GI50: > 100 µM (inactive)
HOP-62
  GI50: > 100 µM (inactive)
HOP-92
  GI50: > 100 µM (inactive)
HT-29
  GI50: > 100 µM (inactive)
IGROV-1
  GI50: > 100 µM (inactive)
K562
  GI50: > 100 µM (inactive)
KM-20L2
  GI50: > 100 µM (inactive)
KM12
  GI50: > 100 µM (inactive)
LOX IMVI
  GI50: > 100 µM (inactive)
LXFL 529
  GI50: > 100 µM (inactive)
M14
  GI50: > 100 µM (inactive)
M19-MEL
  GI50: > 100 µM (inactive)
MOLT-4
  GI50: > 100 µM (inactive)
Malme-3M
  GI50: > 100 µM (inactive)
NCI-H226
  GI50: > 100 µM (inactive)
NCI-H23
  GI50: > 100 µM (inactive)
NCI-H460
  GI50: > 100 µM (inactive)
NCI-H522
  GI50: > 100 µM (inactive)
OVCAR-3
  GI50: > 100 µM (inactive)
OVCAR-4
  GI50: > 100 µM (inactive)
OVCAR-5
  GI50: > 100 µM (inactive)
OVCAR-8
  GI50: > 100 µM (inactive)
RPMI-8226
  GI50: > 100 µM (inactive)
RXF 393
  GI50: > 100 µM (inactive)
SF-268
  GI50: > 100 µM (inactive)
SF-295
  GI50: > 100 µM (inactive)
SF-539
  GI50: > 100 µM (inactive)
SK-MEL-5
  GI50: > 100 µM (inactive)
SK-OV-3
  GI50: > 100 µM (inactive)
SN12C
  GI50: > 100 µM (inactive)
SNB-19
  GI50: > 100 µM (inactive)
SNB-75
  GI50: > 100 µM (inactive)
SNB-78
  GI50: > 100 µM (inactive)
SR
  GI50: > 100 µM (inactive)
SW-620
  GI50: > 100 µM (inactive)
TK-10
  GI50: > 100 µM (inactive)
U-251
  GI50: > 100 µM (inactive)
UACC-257
  GI50: > 100 µM (inactive)
UACC-62
  GI50: > 100 µM (inactive)
UO-31
  GI50: > 100 µM (inactive)
XF498
  GI50: > 100 µM (inactive)

## CN1N=C2c3ccccc3OC(c3ccccc3)[C@H]2C1c1ccccc1 (stereo not given in full)
786-0
  GI50: > 100 µM (inactive)
A498
  GI50: > 100 µM (inactive)
A549
  GI50: 72.9 µM (inactive)
ACHN
  GI50: > 100 µM (inactive)
CCRF-CEM
  GI50: 38.4 µM (inactive)
COLO 205
  GI50: > 100 µM (inactive)
DLD-1
  GI50: 95.3 µM (inactive)
DMS-114
  GI50: 44.1 µM (inactive)
DMS-273
  GI50: > 100 µM (inactive)
EKVX
  GI50: > 100 µM (inactive)
HCC 2998
  GI50: 56.1 µM (inactive)
HCT-116
  GI50: 29.7 µM (inactive)
HCT-15
  GI50: 75 µM
HL-60
  GI50: 37.3 µM (inactive)
HOP-18
  GI50: > 100 µM (inactive)
HOP-62
  GI50: 95.5 µM (inactive)
HOP-92
  GI50: 32.7 µM (inactive)
HT-29
  GI50: 42.1 µM (inactive)
IGROV-1
  GI50: 90.8 µM (inactive)
K562
  GI50: 88.1 µM (inactive)
KM-20L2
  GI50: 51.2 µM (inactive)
KM12
  GI50: > 100 µM (inactive)
LOX IMVI
  GI50: > 100 µM (inactive)
LXFL 529
  GI50: 37.6 µM (inactive)
M14
  GI50: > 100 µM (inactive)
M19-MEL
  GI50: > 100 µM (inactive)
MOLT-4
  GI50: 35.2 µM (inactive)
Malme-3M
  GI50: 22.2 µM (inactive)
NCI-H226
  GI50: > 100 µM (inactive)
NCI-H23
  GI50: 79.4 µM (inactive)
NCI-H460
  GI50: 97.1 µM (inactive)
NCI-H522
  GI50: 22.5 µM (inactive)
OVCAR-3
  GI50: > 100 µM (inactive)
OVCAR-4
  GI50: 85.1 µM (inactive)
OVCAR-5
  GI50: > 100 µM (inactive)
OVCAR-8
  GI50: > 100 µM (inactive)
RPMI-8226
  GI50: 89.7 µM (inactive)
RXF 393
  GI50: 28.2 µM (inactive)
SF-268
  GI50: > 100 µM (inactive)
SF-295
  GI50: 90.4 µM (inactive)
SF-539
  GI50: > 100 µM (inactive)
SK-MEL-28
  GI50: > 100 µM (inactive)
SK-MEL-2
  GI50: > 100 µM (inactive)
SK-OV-3
  GI50: > 100 µM (inactive)
SN12C
  GI50: > 100 µM (inactive)
SNB-19
  GI50: > 100 µM (inactive)
SNB-78
  GI50: 26.4 µM (inactive)
SR
  GI50: > 100 µM (inactive)
SW-620
  GI50: > 100 µM (inactive)
TK-10
  GI50: > 100 µM (inactive)
U-251
  GI50: > 100 µM (inactive)
UACC-257
  GI50: 81.1 µM (inactive)
UACC-62
  GI50: > 100 µM (inactive)
UO-31
  GI50: 61.1 µM (inactive)
XF498
  GI50: > 100 µM (inactive)
